{"source": "paper PMC11802874", "about": "“The hypolipidemic effect of MI-883, the combined CAR agonist/ PXR antagonist, in diet-induced hypercholesterolemia model” (Nature Communications, 2025)", "key": {"[1]": {"test_system": "Salmonella typhimurium TA 98, TA 100, TA 1535, TA 1537; Escherichia coli WP2 uvrA", "assay": "Reverse-mutation Ames test / Bacterial Reverse Mutation Test", "details": "with and without metabolic activation", "description": "The mutagenic activity of MI-883 was detected using the commercially available Muta-ChromoPlate bacterial strain kit (ebpi, Mississauga, Ontario, Canada), which is a 96-well microplate version of the reverse-mutation Salmonella typhimurium Ames test with S9 rat-liver extract. Salmonella typhimurium tester strains TA 98 (detection of frameshift mutagens) and TA 100 (detection of base-exchange mutations) were used as we described before^1.\nConsistently, Bacterial Reverse Mutation Test was performed as a service at Research Institute for Organic Syntheses Inc., (Pardubice, Czech Republic) in Salmonella typhimurium strains TA 98, TA 100, TA 1535, TA 1537, and one indicator Escherichia coli WP2 uvrA strains. The report is available after request."}, "[2]": {"test_system": "humanized PXR-CAR-CYP3A4/3A7 mice, liver", "assay": "Liver cholesterol, C4 and lathosterol analysis (HFD study)", "format": "in vivo, mouse", "set-up": "liver total cholesterol (TotCh), individual animals / liver free cholesterol (Free CH), individual animals / liver cholesteryl esters (CE), individual animals / liver C4, individual animals / liver lathosterol, individual animals: unit not given here", "method": "Cholesterol (Ch, total and free Ch), C4, and lathosterol determination were performed in liver tissue (25–80 mg fresh weight) using GC-MS according to Cohen et al.[67] (detailed protocol in Supplementary, Chapter 14). Internal standard (d7-cholesterol, Sigma Aldrich/Merck) was used. Solid phase extraction[68] and analysis were performed using LC-MS/MS as described previously. Protein quantification was done using DC Protein Assay (Bio-Rad) according to manufacturer instructions (micro assay format). All samples were analyzed for protein content in triplicates and analyzed.\nLiver tissue (25-80 mg fresh weight) was diluted 10x with PBS (by weight), cut into small pieces using scissors, and treated with multiple (10-20) short pulses of ultrasound until a smooth homogenate was obtained. This 10% liver sonicate was used in subsequent analyses.\nLathosterol was measured using the same procedure as for free cholesterol with slight modifications: the volume of liver homogenate as well as the injection volume were increased (100 µL and 2 µL, respectively) while the amount of internal standard was reduced to approximately 100 ng. Also, the mixture was sonicated for 10 minutes after adding ethanol.\nLiver sonicate (10%) was further diluted 30x (by weight) and 5 µL was analyzed using DC Protein Assay (Bio-Rad) according to manufacturer instructions (microassay format). Bovine serum albumin was used as standard. All samples were analyzed in triplicates."}, "PPARα": {"target": "PPARα (Homo sapiens, UniProt Q07869)", "sequence (Q07869 239-466 limits assumed)": "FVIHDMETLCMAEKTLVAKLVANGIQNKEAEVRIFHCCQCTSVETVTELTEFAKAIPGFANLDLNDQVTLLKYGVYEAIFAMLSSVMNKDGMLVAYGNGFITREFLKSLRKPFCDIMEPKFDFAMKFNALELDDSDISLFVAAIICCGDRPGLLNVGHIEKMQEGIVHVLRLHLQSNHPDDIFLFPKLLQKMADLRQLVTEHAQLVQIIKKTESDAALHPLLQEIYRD", "assay": "Luciferase reporter gene assay PPARα, HepG2", "source_text": "(§1) The luciferase reporter gene assays for FXR, LXRα, LXRβ, THα, GRα, PPARα, PPARδ/β, PPARγ, AhR, VD, ERα, ERβ and mouse Car are described in our recent paper[19]\n(§2) Gal4-LBD constructs of tested nuclear receptors have been used together with pGL4.31[luc2P/GAL4UAS/Hygro] luciferase reporter construct and pRL-TK Renilla expression vector (both from Promega, Hercules, USA) in HepG2 cells transfected with Lipofectamine 2000 or 3000 reagents. For GRα and FXR receptors, full-length expression vectors have been used with pGRE-luc or pFXRE-luc luciferase constructs. For the aryl hydrocarbon receptor (AhR), p1A1-luc construct was used with only pRL-TK vector for transfection normalization. A dual reporter assay (Promega, Hercules, USA) was used to analyze both firefly and Renilla luciferase activities.\n(§3) Gal4-LBD constructs of tested nuclear receptors have been used together with pGL5-luc luciferase reporter construct and pRL-TK Renilla expression vector in HepG2 cells transfected with Lipofectamine 2000 or 3000 reagents. For GRα and FXR receptors, full-length expression vectors have been used with pGRE-luc or pFXRE-luc luciferase constructs. For the aryl hydrocarbon receptor (AhR), p1A1-luc construct was used with only pRL-TK vector for transfection normalization. […] Bars represent means±S.D. (n=3)."}, "[3]": {"assay": "Metabolic stability in mouse liver S9 fraction", "details": "male, CD-1, mouse", "method": "Shimadzu HPLC system including vacuum degasser, gradient pumps, reverse phase HPLC column, column oven, and autosampler with an API 4000 QTRAP mass spectrometer (Applied Biosystems/MDS Sciex (AB Sciex) with Turbo V ion source and TurboIonspray interface were used. The reference compound midazolam, which is metabolized both by phase I and phase II enzymes, was used. The elimination constant (kel), half-life (t1/2), and intrinsic clearance (Clint) were determined[19] (Table S1)."}, "PPARγ": {"target": "PPARγ (Homo sapiens, UniProt P37231)", "sequence (P37231 238-503 limits assumed)": "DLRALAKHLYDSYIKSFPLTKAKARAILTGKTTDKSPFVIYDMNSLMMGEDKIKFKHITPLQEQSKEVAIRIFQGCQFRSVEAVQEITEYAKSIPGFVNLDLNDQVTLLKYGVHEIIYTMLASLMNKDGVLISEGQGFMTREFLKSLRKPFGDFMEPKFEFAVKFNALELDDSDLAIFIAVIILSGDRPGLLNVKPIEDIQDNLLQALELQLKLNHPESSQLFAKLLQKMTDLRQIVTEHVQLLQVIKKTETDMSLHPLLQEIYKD", "assay": "Luciferase reporter gene assay PPARγ, HepG2", "source_text": "as §1, §2, §3"}, "human PXR": {"target": "T1, human PXR (Homo sapiens, UniProt O75469)", "T1 sequence (O75469 1-434)": "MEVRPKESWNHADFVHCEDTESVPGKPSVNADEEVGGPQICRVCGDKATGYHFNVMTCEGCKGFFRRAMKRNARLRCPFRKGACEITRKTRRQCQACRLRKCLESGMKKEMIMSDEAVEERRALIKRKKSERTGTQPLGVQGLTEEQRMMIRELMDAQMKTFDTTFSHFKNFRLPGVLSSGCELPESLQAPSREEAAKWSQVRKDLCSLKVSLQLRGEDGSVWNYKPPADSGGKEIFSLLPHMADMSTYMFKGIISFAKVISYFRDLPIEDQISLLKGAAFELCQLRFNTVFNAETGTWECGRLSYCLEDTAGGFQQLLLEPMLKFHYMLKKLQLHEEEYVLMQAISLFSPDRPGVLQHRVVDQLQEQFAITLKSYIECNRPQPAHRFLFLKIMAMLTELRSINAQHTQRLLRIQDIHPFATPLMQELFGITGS", "assay": "PXR luciferase reporter gene assay (CYP3A4-luc) in HepG2 cells", "format": "cell-based", "set-up": "host or cells: HepG2", "method": "The half maximal effective concentration (EC50) to activate CAR or inhibit PXR (IC50) in the assays was calculated from at least eight points of the dose-response curves using the GraphPad Prism software."}, "FXR": {"target": "FXR (Homo sapiens, UniProt Q96RI1)", "sequence (Q96RI1 whole entry)": "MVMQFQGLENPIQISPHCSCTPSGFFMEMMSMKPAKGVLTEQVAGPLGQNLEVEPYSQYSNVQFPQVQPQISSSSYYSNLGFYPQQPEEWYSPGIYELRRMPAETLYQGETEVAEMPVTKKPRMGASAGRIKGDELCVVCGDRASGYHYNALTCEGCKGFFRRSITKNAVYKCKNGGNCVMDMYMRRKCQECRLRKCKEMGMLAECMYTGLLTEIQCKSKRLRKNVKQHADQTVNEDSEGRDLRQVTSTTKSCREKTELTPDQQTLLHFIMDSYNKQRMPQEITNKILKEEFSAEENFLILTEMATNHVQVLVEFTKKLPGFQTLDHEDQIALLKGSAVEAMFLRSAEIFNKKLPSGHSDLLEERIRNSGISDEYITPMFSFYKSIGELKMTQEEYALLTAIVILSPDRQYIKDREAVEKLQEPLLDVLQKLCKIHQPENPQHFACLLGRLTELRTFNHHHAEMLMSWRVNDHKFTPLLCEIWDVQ", "assay": "Luciferase reporter gene assay FXR, HepG2", "source_text": "as §2, §3"}, "[4]": {"test_system": "LS174T cells (endogenous PXR)", "assay": "CYP3A4 mRNA RT-qPCR in LS174T cells", "source_text": "LS174T human colon adenocarcinoma cells (RRID:CVCL_1384) were used in induction experiments with the subsequent CYP3A4 mRNA RT-qPCR analysis as they express functional endogenous PXR."}, "CAR-LBD": {"target": "T2, CAR-LBD (Homo sapiens, UniProt Q14994)", "T2 construct": "HIS-tagged CAR-LBD (ThermoFisher Sciences, Cat. No PV4836); purchased ThermoFisher PV4836", "T2 sequence (Q14994 109-348 isoform Q14994-2 limits assumed)": "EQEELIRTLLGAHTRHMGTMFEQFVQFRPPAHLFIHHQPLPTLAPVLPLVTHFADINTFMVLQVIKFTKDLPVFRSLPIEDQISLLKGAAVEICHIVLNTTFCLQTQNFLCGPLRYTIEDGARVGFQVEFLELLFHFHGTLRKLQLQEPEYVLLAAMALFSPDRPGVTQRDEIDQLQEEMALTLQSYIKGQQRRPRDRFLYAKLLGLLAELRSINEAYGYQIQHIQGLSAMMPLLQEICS", "assay": "MARCoNI CAR-LBD coregulator interaction array", "format": "biochemical", "details": "100 μM", "method": "The reaction was performed in a fully automated microarray processing and fluorescent imaging platform (PamStation12) at 20 °C for 80 cycles (two cycles per minute). After removal of the unbound CAR-LBD receptor by washing each array with 25 µl Tris-buffered Saline (TBS) buffer, fluorescent images of the PamChip microarrays were obtained using the PamStation12, and then were analyzed for quantification of CAR binding using BioNavigator software (PamGene International B.V.). For data and statistical analysis, BioNavigator was used.\nModulation index (MI) is the log10-transformed relative binding value, which is calculated by the compound’s binding value, relative to the vehicle control (DMSO) binding value."}, "PPARδ/β": {"target": "PPARδ/β (Homo sapiens, UniProt Q03181)", "sequence (Q03181 211-439 limits assumed)": "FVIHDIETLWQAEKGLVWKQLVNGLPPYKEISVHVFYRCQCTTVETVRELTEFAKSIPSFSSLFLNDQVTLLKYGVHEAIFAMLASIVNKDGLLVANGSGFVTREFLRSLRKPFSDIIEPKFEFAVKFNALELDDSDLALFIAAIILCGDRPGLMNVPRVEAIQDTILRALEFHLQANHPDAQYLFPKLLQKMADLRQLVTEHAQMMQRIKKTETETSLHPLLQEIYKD", "assay": "Luciferase reporter gene assay PPARδ/β, HepG2", "source_text": "as §1, §2, §3"}, "[5]": {"details": "male mice, MI-883 5 mg/kg 3× per week p.o., unit not given, 5 mg/kg"}}, "note": "Several values for one entry are separate records, joined by “and”; a condition that tells them apart may be missing. Equal values may be shown once. Entries after “also recorded” stand apart in the source; their conditions may differ. Read-outs that look alike come from different tables or passages of the source."}
{"smiles": "NC(=O)c1cc(Cn2cc(-c3c(-c4ccc(Cl)cc4)nc4cc(F)ccn34)nn2)ccc1Cl", "note": "[MI-883, 2-chloro-5-((4-(2-(4-chlorophenyl)-7-fluoroimidazo[1,2-a]pyridin-3-yl)-1H-1,2,3-triazol-1-yl)methyl)benzamide]", "values": [{"measurement": "genotoxicity / mutagenicity", "setting": "[1]", "result": "not genotoxic; also recorded: nonmutagenic"}, {"measurement": "free cholesterol in the liver (per liver protein or LW)", "setting": "[2]", "result": "significantly decreased"}, {"measurement": "liver C4 and C4/total cholesterol", "setting": "[2]", "result": "did not increase"}, {"measurement": "liver lathosterol, total cholesterol, cholesteryl esters (CE)", "setting": "[2]", "result": "did not show significant changes"}, {"measurement": "liver C4, individual animals", "setting": "[2]; [5]", "result": "742.5 and 1060.6 and 588.1 and 517.8 and 1677.1 and 810.7 and 1283.7 and 1057.8 and 1099.9"}, {"measurement": "liver cholesteryl esters (CE), individual animals", "setting": "[2]; [5]", "result": "23 and 16.4 and 24.1 and 22.4 and 62.3 and 32.9 and 18.7 and 38.2 and 47.6"}, {"measurement": "liver free cholesterol (Free CH), individual animals", "setting": "[2]; [5]", "result": "40.3 and 36.2 and 35.7 and 37.4 and 37.7 and 32.3 and 38.3 and 39.6 and 40.5"}, {"measurement": "liver lathosterol, individual animals", "setting": "[2]; [5]", "result": "1.57 and 2.018 and 2.101 and 1.895 and 2.439"}, {"measurement": "liver total cholesterol (TotCh), individual animals", "setting": "[2]; [5]", "result": "63.3 and 52.6 and 59.8 and 100 and 65.2 and 57 and 77.8 and 88.1"}, {"measurement": "NRs assays: PPARa (relative to ctrl, replicates)", "setting": "PPARα", "result": "0.75 and 0.92 and 1.14"}, {"measurement": "microsomal CLint", "setting": "[3]; liver S9 fraction", "result": 3, "unit": "µL/min/mg"}, {"measurement": "half-life", "setting": "[3]; s9", "result": 1.87, "unit": "h"}, {"measurement": "NRs assays: PPARy (relative to ctrl, replicates)", "setting": "PPARγ", "result": "0.61 and 0.89 and 1.05"}, {"measurement": "IC50", "setting": "human PXR; HepG2 cells, read-out: IC50, basal PXR activation", "result": "2030 ± 300", "unit": "nM"}, {"measurement": "IC50", "setting": "human PXR; HepG2 cells, read-out: IC50, rifampicin-induced PXR activation", "result": "3600 ± 400", "unit": "nM"}, {"measurement": "IC50", "setting": "human PXR; reply to reviewers, read-out: IC50 for PXR antagonistic activity", "result": 2000, "unit": "nM"}, {"measurement": "NRs assays: FXR (relative to ctrl, replicates)", "setting": "FXR", "result": "0.85 and 0.88 and 1.01"}, {"measurement": "RT-qPCR in LS174T (Fig 1 l, CYP3A4 mRNA), replicates", "setting": "[4]; Rif 1μM + MI-883 1μM", "result": "2.91 and 2.35 and 2.61"}, {"measurement": "RT-qPCR in LS174T (Fig 1 l, CYP3A4 mRNA), replicates", "setting": "[4]; Rif 1μM + test compound 10μM", "result": "0.86 and 1.1 and 0.8"}, {"measurement": "RT-qPCR in LS174T (Fig 1 l, CYP3A4 mRNA), replicates", "setting": "[4]; Rif 10μM + MI-883 1μM", "result": "10.4 and 6.9 and 8.3"}, {"measurement": "RT-qPCR in LS174T (Fig 1 l, CYP3A4 mRNA), replicates", "setting": "[4]; Rif 10μM + MI-883 10μM", "result": "3.35 and 2.8 and 2.2"}, {"measurement": "RT-qPCR in LS174T (Fig 1 l, CYP3A4 mRNA), replicates", "setting": "[4]; SR12813 1μM + MI-883 1μM", "result": "0.55 and 0.68 and 0.64"}, {"measurement": "RT-qPCR in LS174T (Fig 1 l, CYP3A4 mRNA), replicates", "setting": "[4]; SR12813 1μM + test compound 10μM", "result": "0.77 and 0.59 and 0.57"}, {"measurement": "RT-qPCR in LS174T (Fig 1 l, CYP3A4 mRNA), replicates", "setting": "[4]; single agent 1μM, ctrl = 1", "result": "0.45 and 0.96 and 0.51"}, {"measurement": "RT-qPCR in LS174T (Fig 1 l, CYP3A4 mRNA), replicates", "setting": "[4]; single agent 10μM", "result": "0.59 and 0.57 and 0.55"}, {"measurement": "CAR-coregulator interaction profile", "setting": "CAR-LBD", "result": "attracts several coactivators, including NCOA1, NCOA2, and NCOA3 proteins"}, {"measurement": "NRs assays: PPARd (relative to ctrl, replicates)", "setting": "PPARδ/β", "result": "1.06 and 1.19 and 1.12"}]}
